Test results as given in patent publication US6949544B2, “Inhibitors of c-Jun N-terminal kinases (JNK) and other protein kinases” (Vertex Pharmaceuticals Incorporated, priority 2001, dated 2005).

Columns and labels:
Type in all cases: biochemical
CDK-2/Cyclin A = CDK-2/Cyclin A (Homo sapiens, UniProt P24941); test: CDK2 inhibition assay (standard coupled enzyme assay); conditions: 25 nM CDK-2/Cyclin A; read-out: CDK2 Inhibitory Activity (Ki rating A-C)
Procedure: Compounds were screened in the following manner for their ability to inhibit CDK2 using a standard coupled enzyme assay (Fox et al (1998) Protein Sci 7, 2249).
To an assay stock buffer solution containing 0.1M HEPES 7.5, 10 mM MgCl2, 1 mM DTT, 25 mM NaCl, 2.5 mM phosphoenolpyruvate, […], […], […], […], and 100 μM peptide ([…], American Peptide, Sunnyvale, Calif.) was added a DMSO solution of a compound of the present invention to a final concentration of 30 μM. The resulting mixture was incubated at 30° C. for 10 minutes.
The reaction was initiated by the addition of 10 μL of CDK-2/Cyclin A stock solution to give a final concentration of 25 nM in the assay. The rates of reaction were obtained by monitoring absorbance at 340 nm over a 5-minute read time at 30° C. using a BioRad Ultramark plate reader (Hercules, Calif.). The Ki values were determined from the rate data as a function of inhibitor concentration.

activated JNK3 = target: T1, activated JNK3 (Homo sapiens, UniProt P53779); test: JNK inhibition assay (spectrophotometric coupled-enzyme assay); conditions: for Ki: 10 nM activated JNK3, 10 μM ATP, read-out: Activity in the JNK3 Inhibition Assay (Ki rating A-C)
T1 construct: One such construct encodes amino acid residues Ser40-Glu402 of JNK3α1 and is preceded by Met and Gly residues; Met-Gly (initiator methionine and added glycine) (N); made in house; host or cells: E. coli BL21 (DE3)
From the text: A BLAST search of the EST database using the published JNK3α1 cDNA as a query identified an EST clone (#632588) that contained the entire coding sequence for human JNK3α1. Polymerase chain reactions (PCR) using pfu polymerase (Strategene) were used to introduce restriction sites into the cDNA for cloning into the pET-15B expression vector at the NcoI and BamHI sites. The protein was expressed in E. coli. […] This truncation corresponds to Ser 2 of JNK1 and JNK2 proteins, and is preceded by a methionine (initiation) and a glycine residue. The glycine residue was added in order to introduce an NcoI site for cloning into the expression vector. In addition, systematic C-terminal truncations were performed by PCR to identify a construct that give rise to diffraction-quality crystals.
5 mg of JNK3 was diluted to 0.5 mg/ml in 50 mM HEPES buffer, pH 7.5, containing 100 mM NaCl, 5 mM DTT, 20 mM MgCl2 and 1 mM ATP. GST-MKK7(DD) was added at a molar ratio of 1:2.5 GST-MKK7:JNK3. After incubation for 30 minutes at 25° C., the reaction mixture was concentrated 5-fold by ultrafiltration in a Centriprep-30 (Amicon, Beverly, Mass.), diluted to 10 ml and an additional 1 mM ATP added. This procedure was repeated three times to remove ADP and replenish ATP. The final addition of ATP was 5 mM and the mixture incubated overnight at 4° C.
The activated JNK3/GST-MKK7(DD) reaction mixture was exchanged into 50 mM HEPES buffer, pH 7.5, containing 5 mM DTT and 5% glycerol (w/v) by dialysis or ultrafiltration. The reaction mixture was adjusted to 1.1 M potassium phosphate, pH 7.5, and purified by hydrophobic interaction chromatography (at 25° C.) using a Rainin Hydropore column. […] Activated JNK3 (i.e. doubly phosphorylated JNK3) was stored at −70° C. at 0.25-1 mg/ml.
Compounds were assayed for the inhibition of JNK3 by a spectrophotometric coupled-enzyme assay. In this assay, a fixed concentration of activated JNK3 (10 nM) was incubated with various concentrations of a potential inhibitor dissolved in DMSO for 10 minutes at 30° C. in a buffer containing 0.1 M HEPES buffer, pH 7.5, containing 10 mM MgCl2, 2.5 mM phosphoenolpyruvate, 200 μM NADH, 150 μg/mL pyruvate kinase, 50 μg/mL lactate dehydrogenase, and 200 μM EGF receptor peptide. […] The reaction was initiated by the addition of 10 μM ATP and the assay plate is inserted into the spectrophotometer's assay plate compartment that was maintained at 30° C. The decrease of absorbance at 340 nm was monitored as a function of time. The rate data as a function of inhibitor concentration was fitted to competitive inhibition kinetic model to determine the Ki.

[1] = target: Glycogen Synthase Kinase 3 (GSK-3) (Homo sapiens, UniProt P49841); test: GSK-3 inhibition assay (standard coupled enzyme assay); conditions: 60 nM GSK-3, 10 μM ATP; read-out: GSK-3 Inhibitory Activity (Ki rating A-C)
Procedure: Compounds were screened in the following manner for their ability to inhibit Glycogen Synthase Kinase 3 (GSK-3) using a standard coupled enzyme assay (Fox et al (1998) Protein Sci 7, 2249). To an assay stock buffer solution containing 0.1M HEPES 7.5, 10 mM MgCl2, 25 mM NaCl, 2.5 mM phosphoenolpyruvate, 300 μM NADH, 1 mM DTT, 30 μg/mL pyruvate kinase, 10 μg/mL lactate dehydrogenase, 300 μM peptide (HSSPHQp-SEDEEE, American Peptide, Sunnyvale, Calif.), and 60 nM GSK-3, was added a 30 μM solution of the compound in DMSO and the resulting mixture incubated at 30° C. for 5 min. The reaction was initiated by the addition of 10 μM ATP. The rates of reaction were obtained by monitoring absorbance at 340 nm over a 5 minute read time at 30° C. using a Molecular Devices plate reader (Sunnyvale, Calif.). The IC50 was determined from the rate data as a function of inhibitor concentration.

[2] = target: T2, Lck kinase purified from bovine thymus (Bos taurus, UniProt Q3ZCM0); test: Lck inhibition assay (33P incorporation into poly Glu-Tyr); conditions: 10 μM ATP; read-out: Activity in the Lck Inhibition Assay (Ki rating A-C)
T2 construct: Lck kinase purified from bovine thymus; purchased Upstate Biotechnology 14-106; host or cells: bovine thymus (tissue-purified)
Procedure: The compounds were assayed as inhibitors of Lck kinase purified from bovine thymus (from Upstate Biotechnology, cat. no. 14-106). Lck kinase activity was monitored by following the incorporation of ^33P from ATP into the tyrosine of a random poly Glu-Tyr polymer substrate of composition, Glu:Tyr=4:1 (Sigma, cat. no. P-0275). The following were the final concentrations of the assay components: 0.05 M HEPES, pH 7.6, 10 mM MgCl2, 2 mM DTT, 0.25 mg/ml BSA, 10 μM ATP (1-2 μCi ^33P-ATP per reaction), 5 mg/ml poly Glu-Tyr, and 1-2 units of lck kinase. In a typical assay, all the reaction components with the exception of ATP were pre-mixed and aliquoted into assay plate wells. […] The assay plate was incubated at 30° C. for 10 min before initiating the reaction with ^33P-ATP. After 20 min of reaction, the reactions were quenched with 150 μl of 10% trichloroacetic acid (TCA) containing 20 mM Na3PO4. The quenched samples were then transferred to a 96-well filter plate (Whatman, UNI-Filter GF/F Glass Fiber Filter, cat no. 7700-3310) installed on a filter plate vacuum manifold. Filter plates were washed four times with 10% TCA containing 20 mM Na3PO4 and then 4 times with methanol. 200 μl of scintillation fluid was then added to each well. The plates were sealed and the amount of radioactivity associated with the filters was quantified on a TopCount scintillation counter.

Sequence of Glycogen Synthase Kinase 3 (GSK-3) (P49841 whole entry): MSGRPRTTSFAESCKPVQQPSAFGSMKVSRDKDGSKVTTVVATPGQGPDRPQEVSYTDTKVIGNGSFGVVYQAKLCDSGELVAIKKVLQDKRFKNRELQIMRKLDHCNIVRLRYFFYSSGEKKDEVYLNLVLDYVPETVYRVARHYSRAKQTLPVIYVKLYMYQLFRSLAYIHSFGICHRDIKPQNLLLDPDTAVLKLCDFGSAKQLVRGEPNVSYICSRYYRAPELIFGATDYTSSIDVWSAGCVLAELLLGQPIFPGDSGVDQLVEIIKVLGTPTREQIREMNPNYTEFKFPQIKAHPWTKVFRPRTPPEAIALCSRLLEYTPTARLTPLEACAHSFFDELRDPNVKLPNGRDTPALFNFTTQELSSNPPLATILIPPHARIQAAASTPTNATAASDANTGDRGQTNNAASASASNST
T2 sequence (Q3ZCM0 1-509): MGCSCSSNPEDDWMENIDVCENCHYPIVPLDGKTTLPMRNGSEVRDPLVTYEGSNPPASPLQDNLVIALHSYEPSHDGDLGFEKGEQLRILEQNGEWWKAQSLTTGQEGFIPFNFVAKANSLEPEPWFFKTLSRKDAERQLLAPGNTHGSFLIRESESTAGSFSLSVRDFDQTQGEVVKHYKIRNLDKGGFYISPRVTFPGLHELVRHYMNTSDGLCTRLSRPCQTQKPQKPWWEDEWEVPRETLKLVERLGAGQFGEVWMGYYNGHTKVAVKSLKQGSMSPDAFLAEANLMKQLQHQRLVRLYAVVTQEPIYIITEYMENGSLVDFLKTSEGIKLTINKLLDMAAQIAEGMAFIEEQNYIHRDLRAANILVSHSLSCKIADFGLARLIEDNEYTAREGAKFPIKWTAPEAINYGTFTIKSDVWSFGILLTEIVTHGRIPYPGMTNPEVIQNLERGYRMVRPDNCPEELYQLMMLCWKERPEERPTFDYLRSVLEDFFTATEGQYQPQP
T1 sequence (P53779 40-402): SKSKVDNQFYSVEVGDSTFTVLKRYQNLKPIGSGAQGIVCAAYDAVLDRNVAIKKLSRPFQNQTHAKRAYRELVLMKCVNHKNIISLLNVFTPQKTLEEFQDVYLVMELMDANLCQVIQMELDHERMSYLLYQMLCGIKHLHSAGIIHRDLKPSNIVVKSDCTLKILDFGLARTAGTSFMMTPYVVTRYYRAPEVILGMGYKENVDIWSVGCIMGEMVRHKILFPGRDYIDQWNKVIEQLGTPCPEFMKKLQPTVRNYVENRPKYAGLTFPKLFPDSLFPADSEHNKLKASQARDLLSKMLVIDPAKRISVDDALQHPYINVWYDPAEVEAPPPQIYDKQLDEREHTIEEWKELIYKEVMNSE

SMILES	Ki (CDK-2/Cyclin A) [µM]	Ki (activated JNK3) [µM]	Ki [1] [µM]	Activity in the JNK3 Inhibition Assay (percent inhibition rating D-F) (activated JNK3; at a 2 μM inhibitor concentration)	Ki [2] [µM]
COc1cc(-c2ccnc(Nc3ccccc3F)n2)cc(OC)c1OC [Compound I-5]	> 5	0.1 to 1	> 1		
COc1cc(-c2ccnc(Nc3ccc(Cl)cc3)n2)cc(OC)c1OC [Compound I-9]	> 5	< 0.1	0.1 to 1		
COc1cc(-c2ccnc(Nc3nc(C)cs3)n2)cc(OC)c1OC [Compound I-10]	> 5	0.1 to 1	0.1 to 1		
COc1cc(-c2ccnc(Nc3cccc(Cl)c3)n2)cc(OC)c1OC [Compound I-18]	> 5	< 0.1	< 0.1		
COc1cccc(Nc2nccc(-c3cc(OC)c(OC)c(OC)c3)n2)c1 [Compound I-20]	> 5	< 0.1	0.1 to 1		
COc1cc(-c2ccnc(Nc3cc(F)c(F)c(F)c3)n2)cc(OC)c1OC [Compound I-22]	> 5	< 0.1	> 1		
COc1ccc(Nc2nccc(-c3cc(OC)c(OC)c(OC)c3)n2)cc1Cl [Compound I-35]	> 5	< 0.1	< 0.1		
COc1cc(-c2ccnc(Nc3cccc(OCc4ccccc4)c3)n2)cc(OC)c1OC [Compound I-38]	> 5	< 0.1	< 0.1		
COc1cc(-c2ccnc(Nc3cccc(Cl)c3)n2)cc(OC)c1OCCN1CCOCC1 [Compound I-39, (3-Chlorophenyl)-(4[3,5-dimethoxy-4-(2-morpholin-4-yl-ethoxy)phenyl]pyrimidin-2-yl)-amine]	> 5	< 0.1	0.1 to 1		
COc1c(Cl)cc(-c2ccnc(Nc3cccc(Cl)c3)n2)cc1Cl [Compound I-41]	> 5	0.1 to 1	0.1 to 1		
COc1c(C)cc(-c2ccnc(Nc3cccc(Cl)c3)n2)cc1C [Compound I-42]	> 5	< 0.1	> 1		
COc1c(Br)cc(-c2ccnc(Nc3cccc(Cl)c3)n2)cc1Br [Compound I-43]	> 5	0.1 to 1	0.1 to 1		
COc1cccc(Nc2nccc(-c3cc(OC)c(OCCN4CCOCC4)c(OC)c3)n2)c1 [Compound I-49]	> 5	< 0.1	0.1 to 1		
COc1cccc(Nc2nccc(-c3cc(Cl)c(OC)c(Cl)c3)n2)c1 [Compound I-51]	> 5	< 0.1	0.1 to 1		
COc1cc(-c2ccnc(Nc3nc4ccccc4[nH]3)n2)cc(OC)c1OC [Compound I-65]	> 5		< 0.1	D (percent inhibition less than or equal to 33%)	
COc1cc(-c2ccnc(Nc3nnc(C)s3)n2)cc(OC)c1OC [Compound I-83]		> 1	> 1		

SMILES	Ki (CDK-2/Cyclin A) [µM]	Ki (activated JNK3) [µM]	Ki [1] [µM]	Activity in the JNK3 Inhibition Assay (percent inhibition rating D-F) (activated JNK3; at a 2 μM inhibitor concentration)	Ki [2] [µM]
COc1cc(-c2ccnc(Nc3onc(C)c3C)n2)cc(OC)c1OC [Compound I-87]		0.1 to 1	> 1		
COc1cc(-c2ccnc(Nc3cc(C)n[nH]3)n2)cc(OC)c1OC [Compound I-88]		0.1 to 1	> 1		
COc1c(-c2ccnc(Nc3cccc(OCc4ccccc4)c3)n2)ccc2c1OCCO2 [II-18]			> 1		> 1
COc1ccc(-c2ccnc(Nc3cccc(Oc4cccc([N+](=O)[O-])c4)c3)n2)c(OC)c1OC [II-25]			< 0.1		< 0.1
COc1ccc(-c2ccnc(Nc3cccc(Oc4cccc(N)c4)c3)n2)c(OC)c1OC [II-26]			< 0.1		< 0.1
COc1ccc(-c2ccnc(Nc3ncnc(Nc4ccccc4)n3)n2)c(OC)c1OC [II-32]		< 0.1	0.1 to 1		> 1
COc1cccc(Nc2ncnc(Nc3nccc(-c4ccc(OC)c(OC)c4OC)n3)n2)c1 [II-33]		> 1	> 1		> 1
COc1ccc(-c2ccc(C)c(Nc3nccc(-c4ccc(OC)c(OC)c4OC)n3)c2)cc1 [II-44]	> 5		> 1		0.1 to 1
COc1ccc(-c2ccnc(Nc3cc(-c4cccc(F)c4)ccc3C)n2)c(OC)c1OC [II-45]	> 5		> 1		0.1 to 1
COc1ccc(-c2ccnc(Nc3cc(-c4cccc(N)c4)ccc3C)n2)c(OC)c1OC [II-46]	> 5		> 1		0.1 to 1
COc1ccc(-c2ccnc(Nc3cc(-c4cccc(O)c4)ccc3C)n2)c(OC)c1OC [II-47]	> 5		0.1 to 1		0.1 to 1
COc1ccc(-c2ccccc2)cc1Nc1nccc(-c2ccc(OC)c(OC)c2OC)n1 [II-48]	> 5		0.1 to 1		0.1 to 1
COc1ccc(Nc2nccc(-c3ccc(OC)c(OC)c3OC)n2)cc1O [II-70]	> 5		0.1 to 1		0.1 to 1
COc1ccc(Nc2nccc(-c3ccc(OC)c(OC)c3OC)n2)cc1[N+](=O)[O-] [II-71]	> 5		> 1		0.1 to 1
COc1ccc(Nc2nccc(-c3ccc(OC)c(OC)c3OC)n2)cc1N [II-72]	> 5		> 1		> 1
